PubChem BioAssay AID2060610 (Molecular Pharmacology Branch, DTP, NCI, 2025)
Several values for one entry are separate records, joined by “and”; a condition that tells them apart may be missing. Equal values may be shown once. One block for each molecule: values may come before it.

Tested on: 616215-338-R-J1-PDC complex spheroids, viability % test/control
Experiment: Anticancer human tumor 616215-338-R-J1-PDC patient-derived colon adenocarcinoma cell line growth inhibition [CLK]
Settings: for viability, T/C: stronger effect = lower value
Procedure, shortened: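 Multi-cell-type spheroids combined patient-derived tumor cells with HUVEC endothelial cells and human mesenchymal stem cells. Paired agents were dosed in half-log steps down from about clinical Cmax, or from 10 microM where Cmax was unknown.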

[1] = curve of first compound, second compound 0.0316 µM
[2] = curve of first compound, second compound 0.1 µM
[3] = curve of first compound, second compound 0.316 µM
[4] = curve of first compound, second compound 1 µM
[5] = curve of first compound, second compound 3.16 µM
[6] = curve of first compound, second compound 10 µM
[7] = second compound 0.0316 µM, first compound 0.0316 µM
[8] = second compound 0.0316 µM, first compound 0.1 µM
[9] = second compound 0.0316 µM, first compound 0.316 µM
[10] = second compound 0.0316 µM, first compound 1 µM
[11] = second compound 0.0316 µM, first compound 3.16 µM
[12] = second compound 0.0316 µM, first compound 10 µM
[13] = second compound 0.1 µM, first compound 0.0316 µM
[14] = second compound 0.1 µM, first compound 0.1 µM
[15] = second compound 0.1 µM, first compound 0.316 µM
[16] = second compound 0.1 µM, first compound 1 µM
[17] = second compound 0.1 µM, first compound 3.16 µM
[18] = second compound 0.1 µM, first compound 10 µM
[19] = second compound 0.316 µM, first compound 0.0316 µM
[20] = second compound 0.316 µM, first compound 0.1 µM
[21] = second compound 0.316 µM, first compound 0.316 µM
[22] = second compound 0.316 µM, first compound 1 µM
[23] = second compound 0.316 µM, first compound 3.16 µM
[24] = second compound 0.316 µM, first compound 10 µM
[25] = second compound 1 µM, first compound 0.0316 µM
[26] = second compound 1 µM, first compound 0.1 µM
[27] = second compound 1 µM, first compound 0.316 µM
[28] = second compound 1 µM, first compound 1 µM
[29] = second compound 1 µM, first compound 3.16 µM
[30] = second compound 1 µM, first compound 10 µM
[31] = second compound 3.16 µM, first compound 0.0316 µM
[32] = second compound 3.16 µM, first compound 0.1 µM
[33] = second compound 3.16 µM, first compound 0.316 µM
[34] = second compound 3.16 µM, first compound 1 µM
[35] = second compound 3.16 µM, first compound 3.16 µM
[36] = second compound 3.16 µM, first compound 10 µM
[37] = second compound 10 µM, first compound 0.0316 µM
[38] = second compound 10 µM, first compound 0.1 µM
[39] = second compound 10 µM, first compound 0.316 µM
[40] = second compound 10 µM, first compound 1 µM
[41] = second compound 10 µM, first compound 3.16 µM
[42] = second compound 10 µM, first compound 10 µM
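Further: spheroids exposed to agents for 7 days.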
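Wherever viability, T/C is given: 100% = DMSO vehicle wells.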

SMILES: C=CC(=O)N1CCN(c2nc(=O)n(-c3c(C)ccnc3C(C)C)c3nc(-c4c(O)cccc4F)c(F)cc23)C(C)C1 (stereo unspecified) + CN1CCN(c2cc(C(=O)Nc3cc4cc(-c5cnn(C)c5)ccc4cn3)ccn2)CC1
IC50 [1]: > 10000 nM
IC50 [2]: > 10000 nM
IC50 [3]: < 31.6 nM
IC50 [4]: < 31.6 nM
IC50 [5]: < 31.6 nM
IC50 [6]: < 31.6 nM
viability, T/C [7]: 104%
viability, T/C [8]: 116%
viability, T/C [9]: 107%
viability, T/C [10]: 104%
viability, T/C [11]: 111%
viability, T/C [12]: 102%
viability, T/C [13]: 116%
viability, T/C [14]: 113%
viability, T/C [15]: 107%
viability, T/C [16]: 114%
viability, T/C [17]: 115%
viability, T/C [18]: 110%
viability, T/C [19]: 34.9%
viability, T/C [20]: 43%
viability, T/C [21]: 43.7%
viability, T/C [22]: 50.9%
viability, T/C [23]: 49.9%
viability, T/C [24]: 28.1%
viability, T/C [25]: 0.2%
viability, T/C [26]: 0.5%
viability, T/C [27]: 0.21%
viability, T/C [28]: 0.2%
viability, T/C [29]: 0.15%
viability, T/C [30]: 0.24%
viability, T/C [31]: 0.13%
viability, T/C [32]: 1.31%
viability, T/C [33]: 0.14%
viability, T/C [34]: 0.14%
viability, T/C [35]: 0.13%
viability, T/C [36]: 1.21%
viability, T/C [37]: 0.17%
viability, T/C [38]: 0.19%
viability, T/C [39]: 0.51%
viability, T/C [40]: 0.2%
viability, T/C [41]: 0.2%
viability, T/C [42]: 0.17%

IC50 [1]: > 10000 nM
IC50 [2]: < 31.6 nM
IC50 [3]: < 31.6 nM
IC50 [4]: < 31.6 nM
IC50 [5]: < 31.6 nM
IC50 [6]: < 31.6 nM
SMILES: COc1ccc([C@@H](O)c2cc(-c3ncnc4cc(N5CCOCC5)ccc34)c(F)cc2Cl)nn1 + CNC(=O)c1ccc(Nc2nc(OC3CCCC3)c3c(-c4ccc5nc(C)oc5c4)c[nH]c3n2)c(OC)c1
viability, T/C [7]: 90.8%
viability, T/C [8]: 103%
viability, T/C [9]: 99.1%
viability, T/C [10]: 100%
viability, T/C [11]: 114%
viability, T/C [12]: 72.5%
viability, T/C [13]: 45.1%
viability, T/C [14]: 45.4%
viability, T/C [15]: 43.4%
viability, T/C [16]: 45.3%
viability, T/C [17]: 43.2%
viability, T/C [18]: 28.8%
viability, T/C [19]: 46.3%
viability, T/C [20]: 43.5%
viability, T/C [21]: 39.4%
viability, T/C [22]: 37.9%
viability, T/C [23]: 32.4%
viability, T/C [24]: 28%
viability, T/C [25]: 40.1%
viability, T/C [26]: 39.9%
viability, T/C [27]: 38.9%
viability, T/C [28]: 38.8%
viability, T/C [29]: 32.2%
viability, T/C [30]: 22.6%
viability, T/C [31]: 49.7%
viability, T/C [32]: 43.7%
viability, T/C [33]: 41%
viability, T/C [34]: 32.6%
viability, T/C [35]: 30.6%
viability, T/C [36]: 20.8%
viability, T/C [37]: 49.1%
viability, T/C [38]: 41.5%
viability, T/C [39]: 38.8%
viability, T/C [40]: 37.1%
viability, T/C [41]: 27.2%
viability, T/C [42]: 19.1%

IC50 (curve of compound): > 10000 nM
SMILES: C=CC(=O)N1CCN(c2nc(=O)n(-c3c(C)ccnc3C(C)C)c3nc(-c4c(O)cccc4F)c(F)cc23)C(C)C1 (stereo unspecified)
viability, T/C (compound 0.0316 µM): 95.4% and 104%
viability, T/C (compound 0.1 µM): 101% and 108%
viability, T/C (compound 0.316 µM): 106% and 119%
viability, T/C (compound 1 µM): 112% and 98.6%
viability, T/C (compound 3.16 µM): 108% and 110%
viability, T/C (compound 10 µM): 106% and 113%
